Assay [1] has as its target T1, SIRT1 (Homo sapiens, UniProt Q96EB6).
T1 sequence (Q96EB6 1-747): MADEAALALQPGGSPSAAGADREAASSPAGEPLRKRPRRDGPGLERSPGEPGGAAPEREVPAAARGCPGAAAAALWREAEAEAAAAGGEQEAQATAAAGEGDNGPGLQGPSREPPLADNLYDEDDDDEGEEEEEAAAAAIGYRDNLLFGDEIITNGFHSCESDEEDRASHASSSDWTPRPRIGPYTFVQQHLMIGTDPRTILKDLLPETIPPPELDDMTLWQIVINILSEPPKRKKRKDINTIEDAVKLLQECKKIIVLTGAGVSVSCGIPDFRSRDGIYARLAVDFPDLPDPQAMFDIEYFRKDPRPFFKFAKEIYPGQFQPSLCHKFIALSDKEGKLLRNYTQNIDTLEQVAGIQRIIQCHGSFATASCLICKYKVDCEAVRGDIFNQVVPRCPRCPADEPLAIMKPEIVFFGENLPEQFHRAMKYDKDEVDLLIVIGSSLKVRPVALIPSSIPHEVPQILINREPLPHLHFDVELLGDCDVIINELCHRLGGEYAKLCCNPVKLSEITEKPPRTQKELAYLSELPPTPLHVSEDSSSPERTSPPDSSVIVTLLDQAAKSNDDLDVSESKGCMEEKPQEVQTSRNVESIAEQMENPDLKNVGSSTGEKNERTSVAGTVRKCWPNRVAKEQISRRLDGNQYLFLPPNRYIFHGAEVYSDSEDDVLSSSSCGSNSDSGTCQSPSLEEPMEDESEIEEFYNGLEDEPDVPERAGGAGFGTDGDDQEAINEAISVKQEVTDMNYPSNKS
In words: Trp mass spectrometry assay of SIRT1 activity. The class given is biochemical. The following applies: Trp peptide substrate; for Trp EC1.5: concentration giving 150% activation of SIRT1; for Emax: percent maximum fold activation, read-out: Trp % Fold Act. Summed up: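 Activation readout: EC1.5 (concentration raising activity 50% over control) and percent maximum activation, from mass-spec quantitation of OAADPR or deacetylated Trp peptide. Reaction: 0.5 μM acetylated Trp peptide, 120 μM βNAD+, 10 nM bacterially expressed N-His SIRT1, pH 7.5 HEPES buffer with […], 25 min at 25° C.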

The target in assay [2] is T1, SIRT1. Kind of assay: TAMRA based mass spectrometry assay of SIRT1 activity. The format is biochemical. The note with it: TAMRA peptide substrate; for TAMRA EC1.5: concentration giving 150% activation of SIRT1; for Emax: percent maximum fold activation, read-out: TAMRA % Fold Act. Summed up: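 Deacetylation of a biotinylated, TAMRA-tagged p53-based peptide (0.5 μM) by 10 nM His-tagged SIRT1 with 120 μM βNAD+, 25 °C for 25 min, pH 8 Tris-acetate buffer, across a compound concentration range. Quenched by formic acid and read by mass spec as product peptide or OAADPR; activity relative to DMSO reactions, nicotinamide defining maximal inhibition.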

The record followed here is patent US9957271B2, “Substituted bicyclic aza-heterocycles and analogues as sirtuin modulators” (GlaxoSmithKline, LLC, priority 2012, dated 2018).

For `Cc1cc2ncc(NC(=O)c3ccncn3)n2nc1-c1ccccc1C(F)(F)F` [Compound 443], at SIRT1 [1], the “Trp EC1.5” value was “C (EC1.5>25 μM)” and the Emax was less than 350%. Also, on SIRT1 [2], the “TAMRA EC1.5” value is reported as “A (EC1.5<1 μM)” and the Emax was not below 350%.

Take `Cc1nc(C(=O)Nc2cnc3cc(C)c(-c4ccccc4C(F)(F)F)nn23)c(C)s1` [Compound 445]: on SIRT1 [1], the “Trp EC1.5” value is recorded as “B (EC1.5 1-25 μM)” and the Emax was less than 350%. At SIRT1 [2], the “TAMRA EC1.5” value is reported as “A (EC1.5<1 μM)” and the Emax is not below 350%.

Regarding `Cc1cc2ncc(NC(=O)c3cccc(N4CCC4)n3)n2nc1-c1ccccc1C(F)(F)F` [Compound 448], at SIRT1 [1], the “Trp EC1.5” value is recorded as “B (EC1.5 1-25 μM)” and the Emax is not below 350%. On SIRT1 [2], the “TAMRA EC1.5” value was “A (EC1.5<1 μM)” and the Emax is not below 350%.

As for `Cc1cc2ncc(NC(=O)c3cccc(OCC(O)CO)n3)n2nc1-c1ccccc1C(F)(F)F` (stereo not shown) [Compound 449], on SIRT1 [1], the “Trp EC1.5” value is “A (EC1.5<1 μM)” and the Emax was not below 350%. Besides, at SIRT1 [2], the “TAMRA EC1.5” value is listed as “A (EC1.5<1 μM)” and the Emax is not below 350%.

For `O=C(Nc1cccnc1)c1ncn2ccc(-c3ccccc3C(F)(F)F)nc12` [Compound 451, N-(pyridin-3-yl)-2-(2-(trifluoromethyl)phenyl)imidazo[1,5-a]pyrimidine-8-carboxamide], at SIRT1 [1], the “Trp EC1.5” value is “B (EC1.5 1-25 μM)” and the Emax is not below 350%. For the same molecule, on SIRT1 [2], the “TAMRA EC1.5” value is “B (EC1.5 1-25 μM)” and the Emax was not below 350%.

`O=C(Nc1cccc(N2CCOCC2)n1)c1ncn2ccc(-c3ccccc3C(F)(F)F)nc12` [Compound 454]: on SIRT1 [1], the “Trp EC1.5” value is “A (EC1.5<1 μM)” and the Emax was not below 350%. In addition, on SIRT1 [2], the “TAMRA EC1.5” value was “A (EC1.5<1 μM)” and the Emax is not below 350%.

For `O=C(Nc1ncn2ccc(-c3ccccc3C(F)(F)F)nc12)c1ccccn1` [Compound 455, N-(2-(2-(trifluoromethyl)phenyl)imidazo[1,5-a]pyrimidin-8-yl)picolinamide], at SIRT1 [1], the “Trp EC1.5” value is recorded as “C (EC1.5>25 μM)” and the Emax was less than 350%. Further, on SIRT1 [2], the “TAMRA EC1.5” value is listed as “B (EC1.5 1-25 μM)” and the Emax is less than 350%.

Regarding `Cc1nc(NC(=O)c2c(C)nc3c(C)cc(-c4ccccc4C(F)(F)F)nn23)sc1C` [Compound 457], at SIRT1 [1], the “Trp EC1.5” value is “A (EC1.5<1 μM)” and the Emax was less than 350%. Also, at SIRT1 [2], the “TAMRA EC1.5” value was “A (EC1.5<1 μM)” and the Emax was not below 350%.

Take `Cc1nc2c(C)cc(-c3ccccc3C(F)(F)F)nn2c1C(=O)Nc1ccncn1` [Compound 460]: on SIRT1 [1], the “Trp EC1.5” value is “A (EC1.5<1 μM)” and the Emax was not below 350%. On SIRT1 [2], the “TAMRA EC1.5” value is recorded as “A (EC1.5<1 μM)” and the Emax is not below 350%.

As to `Cc1nc2ccc(-c3ccccc3C(F)(F)F)nn2c1C(=O)Nc1ccncn1` [Compound 461], on SIRT1 [1], the “Trp EC1.5” value is recorded as “B (EC1.5 1-25 μM)” and the Emax is not below 350%. For the same molecule, at SIRT1 [2], the “TAMRA EC1.5” value was “A (EC1.5<1 μM)” and the Emax is not below 350%.

Regarding `Cc1nc2ccc(-c3ccccc3C(F)(F)F)nn2c1C(=O)Nc1cnccn1` [Compound 463], on SIRT1 [1], the “Trp EC1.5” value is “B (EC1.5 1-25 μM)” and the Emax was not below 350%. At SIRT1 [2], the “TAMRA EC1.5” value was “A (EC1.5<1 μM)” and the Emax was not below 350%.

For `Cc1nc2ccc(-c3ccccc3OC(F)(F)F)nn2c1C(=O)Nc1ccncc1F` [Compound 466], on SIRT1 [1], the “Trp EC1.5” value was “A (EC1.5<1 μM)” and the Emax was not below 350%. In addition, on SIRT1 [2], the “TAMRA EC1.5” value is “A (EC1.5<1 μM)” and the Emax was not below 350%.

On to `O=C(Nc1cnc2ccc(-c3ccccc3C(F)(F)F)nn12)c1cccc(O)n1` [Compound 467], for which, on SIRT1 [1], the “Trp EC1.5” value is on record as “B (EC1.5 1-25 μM)” and the Emax was less than 350%. At SIRT1 [2], the “TAMRA EC1.5” value is on record as “B (EC1.5 1-25 μM)” and the Emax is not below 350%.
